The subject of one test is S. aureus (+). Put plainly: porfimer sodium aPDT, planktonic culture. In kind it is cell-based, Staphylococcus aureus. Particulars: 630 nm, 200 J/cm2, porfimer sodium 125 μg/mL. The method, then: (§1) Bacteria were routinely cultured using tryptic soy broth or agar at 37° C. in a 5% CO2 incubator. Bacteria were isolated and suspended with 0.9% NaCl to an Optical Density (OD) of 0.1 taken at 630 nm, to generate the inoculum used for either planktonic or biofilm assays.
(§2) Experiments using planktonic cultures were carried out using M. catarrhalis, as a standard for further comparisons and to determine the effective drug concentration, porfimer sodium incubation time and light dose parameters which would provide an effective cell kill at the level of 5-7 logs. Once determined the experiments were repeated for all other bacterial strains examined.
(§3) The colony forming units (CFU) per mL of the starting inoculum for every experiment was determined by dilution plating. […]
(§4) Bacteria were exposed to 630 nm laser light via a fiber optic with a lens affixed to the distal end to provide a uniform diverging light field. […] Power output of the laser was measured using a UDT/Gamma Scientific 371 optical power meter and an integrating sphere. […]
(§5) Biofilms were formed on glass coupons in culture dishes containing a bacterial inoculum for 48 hours under conditions specific to the strain. […] Power output of the laser was measured using a UDT/Gamma Scientific 371 optical power meter and an integrating sphere. […]

A further test concerns B. thurigiensis (+). Put plainly: porfimer sodium aPDT, planktonic culture. In kind it is cell-based, Bacillus thuringiensis. The conditions noted are these: 630 nm, 200 J/cm2, porfimer sodium 125 μg/mL. The method, then:
as §1, §2, §3, §4, §5

Another test has as its system S. enterica (−). Put plainly: porfimer sodium aPDT, planktonic culture. Format: cell-based, Salmonella enterica. Particulars: 630 nm, 200 J/cm2, porfimer sodium 125 μg/mL. The method, then: as §1, §2, §3, §4, §5
The subject of a further test is E. coli (−). Nature of the test: porfimer sodium aPDT, planktonic culture. In kind it is cell-based, Escherichia coli. Particulars: 630 nm, 200 J/cm2, porfimer sodium 125 μg/mL. The method, then: as §1, §2, §3, §4, §5
The subject of the next test is N. gonorrhoea (−). Nature of the test: porfimer sodium aPDT, planktonic culture. In kind it is cell-based, Neisseria gonorrhea. Particulars: 630 nm, 200 J/cm2, porfimer sodium 125 μg/mL. As to the method:
as §1, §2, §3, §4, §5

The next test concerns H. influenza (−). Nature of the test: porfimer sodium aPDT, planktonic culture. In kind it is cell-based, Haemophilus influenza. Particulars: 630 nm, 200 J/cm2, porfimer sodium 125 μg/mL. The method, then:
as §1, §2, §3, §4, §5

The next test relates to F. nucleatum (−). Put plainly: porfimer sodium aPDT, planktonic culture. In kind it is cell-based, Fusobacterium nucleatum. The conditions noted are these: 630 nm, 50 J/cm2, porfimer sodium 125 μg/mL. As to the method: as §1, §2, §3, §4, §5
Another test has as its system P. anaerobius (+). Nature of the test: porfimer sodium aPDT, 48 hour biofilm culture. In kind it is cell-based, Peptostreptococcus anaerobius. The conditions noted are these: 630 nm, kill at 100 J/cm2 (light dose 75-100 J/cm2), porfimer sodium 250 μg/mL. As to the method: as §1
(§6) The colony forming units (CFU) per mL of the starting inoculum for every experiment was determined by dilution plating. Control samples were exposed to laser at 630 nm in the absence of porfimer sodium, porfimer sodium in the absence of laser exposure, or in saline alone in the absence of porfimer sodium and 630 nm laser light. All experimental samples were dilution plated to enumerate viable CFU's. Three independent replicates were performed for each reaction condition per strain per assay. […]
as §4, §5

The subject of another test is MRSA (+). Put plainly: porfimer sodium aPDT, 48 hour biofilm culture. In kind it is cell-based, methicillin-resistant Staphylococcus aureus. The conditions noted are these: 630 nm, kill at 100 J/cm2 (light dose 75-100 J/cm2), porfimer sodium 250 μg/mL. The method, then:
as §1, §6, §4, §5

A further test concerns P. gingivalis (−). Nature of the test: porfimer sodium aPDT, 48 hour biofilm culture. In kind it is cell-based, Porphyromonas gingivalis. Particulars: 630 nm, kill at 100 J/cm2 (light dose 75-100 J/cm2), porfimer sodium 250 μg/mL. The method, then: as §1, §6, §4, §5
In the next test the test system is Haemophilus influenza. Put plainly: abraded skin wounds, culture swabs (Example 3). In kind it is in vivo, Yorkshire pigs. The text has this:
(§7) On Day −2 of the study, pigs were anesthetized and the skin aseptically prepared. Superficial wounds were created using the tape strip method until punctate bleeding was observed. Also on Day −2, eight wounds per pig were inoculated with one of three bacterial cultures (Haemophilus influenza, Moraxella catarrhalis, or Staphylococcus aureus) at a concentration of 10^7-10^8 CFUs per mL. There were two control sites on each side. […] The wounds were covered, analgesia in the form of buprenorphine (IM, 0.03 mg/kg) was provided, and the animals were recovered from anesthesia.
(§8) On Day 0, culture swabs were collected from each wound prior to dosing. Six wounds per pig were treated with the test article and the laser light treatment. Culture swabs were collected from the test wounds 1 hour following laser light treatment and the animals were recovered from anesthesia. On Day 1, culture swabs were collected from the treated wounds and two wounds per pig were treated a second time with the test article and the laser light treatment. Culture swabs were collected from these test wounds 1 hour following laser light treatment and the animals were recovered from anesthesia. On Day 2, culture swabs were collected from each wound just prior to euthanasia.
(§9) Porfimer sodium administration: to prepare the test article, 75 mg of porfimer sodium was reconstituted with the currently FDA approved method of 31.8 mL of 0.9% sodium chloride, resulting in a stock solution of 2.5 mg/mL. Due to concerns about stability of the solution, the solution was used immediately. A 10 ml solution at a concentration of 0.3 mg/ml (300 mcg/ml), in 0.9% Sodium Chloride Injection (USP) was prepared. 300 μg of porfimer sodium was applied as a saline solution to infected wounds (except controls) and incubated for 30 minutes prior to activation. The sites were exposed to a 630 nm laser light for up to 20 minutes. The light source, a 630PDT laser. Each wound was exposed to 200 J/cm^2.

In a further test the test system is Moraxella catarrhalis. Nature of the test: abraded skin wounds, culture swabs (Example 3). Format: in vivo, Yorkshire pigs.
Description: as §7, §8, §9

Another test has as its system Staphylococcus aureus. Nature of the test: abraded skin wounds, culture swabs (Example 3). In kind it is in vivo, Yorkshire pigs. Particulars: for Log CFU/site, Sa: sites 2, 7: hydrogel formulation, treated twice (LPT).
Description: as §7, §8, §9

The mark [1] stands for this setting: 300 μg porfimer sodium, 30 minutes, 630 nm 200 J/cm^2.

“And” between values parts separate entries of the source, which are not always exact repeats. Identical values can stand only once.

Turning to porfimer sodium, the Rate of kill in the test on S. aureus (+) is given as over 7Log; with B. thurigiensis (+), over 6Log; in the test on S. enterica (−), 6Log; with E. coli (−), under 1Log; in the test with N. gonorrhoea (−) it was 4Log; in the test on H. influenza (−), 4Log. For the same substance, the Rate of kill in the test on F. nucleatum (−) is listed as 3Log; with P. anaerobius (+), over 6Log; in the test on MRSA (+) it was 7Log; in the test on P. gingivalis (−) it was 7Log. Further, the “antimicrobial activity when applied to inoculated wounds” value with Haemophilus influenza (setting [1]), with Moraxella catarrhalis (setting [1]) and in the test with Staphylococcus aureus (setting [1]) was “did not provide antimicrobial activity” each time. Moreover, the “Log CFU/site, Hi” value with Haemophilus influenza (sites 1, 6: hydrogel formulation, treated once (LPO), day 1, 24 h post tx) is 3.0 × 10^5 Log CFU/site; with Haemophilus influenza (sites 2, 7: hydrogel formulation, treated twice (LPT), day 0, 1 h-post tx), 1.3 × 10^4 Log CFU/site and 1.2 × 10^2 Log CFU/site; in the test with Haemophilus influenza (sites 2, 7: hydrogel formulation, treated twice (LPT), day 1, pre 2nd tx) it was 2.0 × 10^4 Log CFU/site and 2.3 × 10^3 Log CFU/site. For the same substance, the “Log CFU/site, Mc” value in the test on Moraxella catarrhalis (sites 3, 8: porfimer sodium in saline, treated once (LPO), day 2, terminal) was 3.1 × 10^6 Log CFU/site and 3.0 × 10^4 Log CFU/site. Besides, the “Log CFU/site, Sa” value was 2.1 × 10^5 Log CFU/site and 2.2 × 10^4 Log CFU/site in the test with Staphylococcus aureus (day 1, 1 h-post 2nd tx); 1.2 × 10^5 Log CFU/site and 1.3 × 10^6 Log CFU/site in the test with Staphylococcus aureus (day 2, terminal).
